Measured values taken from patent US6664273B2, “Piperidine based MCH antagonists for treatment of obesity and CNS disorders” (Schering Corporation, priority 2001, dated 2003).

Target: T1, MCH receptor (Homo sapiens, UniProt Q99705)
T1 construct: expressed in transfected cells; host or cells: CHO cells
Test: MCH Receptor Binding Assay
Conditions: [125I]-MCH, SPA, membranes from CHO cells expressing the MCH receptor
Description: Membranes from CHO cells expressing the MCH receptor were prepared by lysing cells with 5 mM HEPES for 15 min at 4C. Cell lysates were centrifuged ([…], 15 min) and the pellet was re-suspended in 5 mM HEPES. For each 96-well plate (Microlite, Dynex Technologies), 1 mg of cell membranes were incubated with 10 mg of wheat germ agglutinin SPA beads (Amersham) for 5 min at 4 C in a volume of 10 ml of binding buffer (25 mM HEPES, 10 mM MGCl2, 10 mM NaCl, 5 mM MnCl2, 0.1% BSA). The membrane/bead mixture was centrifuged (1500×g, 3.5 min), the supernatant was aspirated, and the pellet was re-suspended in 10 ml binding buffer. The centrifugation, aspiration and re-suspension were then repeated. The membrane/bead mixture (100 μl) was then added to 96-well plates containing 50 μl of 500 pM [^125I]-MCH (NEN) and […] of the appropriate concentration of compound (4× the desired final concentration). Nonspecific binding was determined by including 1 μM MCH in the binding reaction. The binding reaction was incubated at room temperature for 2 h. Plates were then analyzed in a TOPCOUNT microplate scintillation counter (Packard). Data was analyzed and Ki values were determined using GraphPad Prism.

T1 sequence (Q99705 whole entry): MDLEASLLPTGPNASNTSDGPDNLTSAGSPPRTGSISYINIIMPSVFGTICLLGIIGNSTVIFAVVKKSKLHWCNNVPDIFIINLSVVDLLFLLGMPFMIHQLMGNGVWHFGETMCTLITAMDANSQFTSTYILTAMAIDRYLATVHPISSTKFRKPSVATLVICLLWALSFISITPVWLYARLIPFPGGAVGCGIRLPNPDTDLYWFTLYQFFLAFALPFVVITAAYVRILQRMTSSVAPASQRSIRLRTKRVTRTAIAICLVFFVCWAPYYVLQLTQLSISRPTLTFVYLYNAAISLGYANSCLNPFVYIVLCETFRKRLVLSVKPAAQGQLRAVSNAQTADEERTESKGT

Structure (SMILES) | Ki
N#Cc1cccc(-c2ccc(C3(NCC(=O)Nc4cc(Cl)cc(Cl)c4)CCN(C4CCCC4)CC3)cc2)c1 | 3.2 nM
N#Cc1cccc(-c2ccc(C3(NCC(=O)Nc4ccc(F)c(C(F)(F)F)c4)CCN(C4CCCC4)CC3)cc2)c1 | 16 nM
CN(CC(=O)Nc1ccc(F)c(C(F)(F)F)c1)C1(c2ccc(-c3cccc(C#N)c3)cc2)CCN(C2CCCC2)CC1 | 18 nM
N#Cc1cccc(-c2ccc(C3(NCC(=O)Nc4ccc(F)c(Cl)c4)CCN(C4CCCC4)CC3)cc2)c1 | 2.6 nM
CN(CC(=O)Nc1ccc(F)c(Cl)c1)C1(c2ccc(-c3cccc(C#N)c3)cc2)CCN(C2CCCC2)CC1 | 4.2 nM
N#Cc1cccc(-c2ccc(C3(NCC(=O)Nc4ccc(Cl)c(C(F)(F)F)c4)CCN(C4CCCC4)CC3)cc2)c1 | 23 nM
CN(CC(=O)Nc1ccc(Cl)c(C(F)(F)F)c1)C1(c2ccc(-c3cccc(C#N)c3)cc2)CCN(C2CCCC2)CC1 | 16 nM
N#Cc1cccc(-c2ccc(C3(NCC(=O)Nc4cc(F)cc(F)c4)CCN(C4CCCC4)CC3)cc2)c1 | 2.5 nM
CN(CC(=O)Nc1cc(F)cc(F)c1)C1(c2ccc(-c3cccc(C#N)c3)cc2)CCN(C2CCCC2)CC1 | 6.2 nM
N#Cc1cccc(-c2ccc(C3(N(CC(=O)Nc4cc(F)cc(F)c4)CC4CC4)CCN(C4CCCC4)CC3)cc2)c1 | 69 nM
N#Cc1cccc(-c2ccc(C3(OCC(=O)Nc4cc(Cl)cc(Cl)c4)CCNCC3)cc2)c1 | 3.2 nM
CN1CCC(OCC(=O)Nc2cc(Cl)cc(Cl)c2)(c2ccc(-c3cccc(C#N)c3)cc2)CC1 | 4 nM
N#Cc1cccc(-c2ccc(C3(OCC(=O)Nc4cc(Cl)cc(Cl)c4)CCN(CC4CC4)CC3)cc2)c1 | 1.8 nM
N#Cc1cccc(-c2ccc(C3(OCC(=O)Nc4cc(Cl)cc(Cl)c4)CCN(C4CCCC4)CC3)cc2)c1 | 2.2 nM
CCN(CC(=O)Nc1ccc(F)c(Cl)c1)C1(c2ccc(-c3cccc(C#N)c3)cc2)CCN(C2CCCC2)CC1 | 10.6 nM
N#Cc1cccc(-c2ccc(C3(OCC(=O)Nc4ccc(F)c(Cl)c4)CCN(CC4CC4)CC3)cc2)c1 | 2 nM
N#Cc1cccc(-c2ccc(C3(OCC(=O)Nc4ccc(Cl)c(C(F)(F)F)c4)CCN(CC4CC4)CC3)cc2)c1 | 23 nM
O=C(CNC1(c2ccc(-c3cccc(OC(F)(F)F)c3)cc2)CCN(C2CCCC2)CC1)Nc1ccc(F)c(Cl)c1 | 76 nM
CC(C)(C)OC(=O)N1CCC(NCC(=O)Nc2ccc(F)c(Cl)c2)(c2ccc(-c3cccc(C#N)c3)cc2)CC1 | 56 nM
N#Cc1cccc(-c2ccc(C3(NCC(=O)Nc4ccc(F)c(Cl)c4)CCNCC3)cc2)c1 | 3 nM
CN(CC(=O)Nc1ccc(F)c(Cl)c1)C1(c2ccc(-c3cccc(C#N)c3)cc2)CCNCC1 | 4.7 nM
CC(=O)N1CCC(c2ccc(-c3cccc(C#N)c3)cc2)(N(C)CC(=O)Nc2ccc(F)c(Cl)c2)CC1 | 25 nM
CN(CC(=O)Nc1ccc(F)c(Cl)c1)C1(c2ccc(-c3cccc(C#N)c3)cc2)CCN(S(C)(=O)=O)CC1 | 70 nM
O=C(CNC1(c2ccc(-c3cccc(F)c3)cc2)CCN(C2CCCC2)CC1)Nc1ccc(F)c(Cl)c1 | 99 nM
O=C(CNC1(c2ccc(-c3cccc(Cl)c3)cc2)CCN(C2CCCC2)CC1)Nc1ccc(F)c(Cl)c1 | 63 nM

Structure (SMILES) | Ki
N#Cc1cccc(-c2ccc(C3(OCC(=O)Nc4cc(Cl)cc(Cl)c4)CCN(C4CCCCC4)CC3)cc2)c1 | 19 nM
CC1CCC(N2CCC(OCC(=O)Nc3cc(Cl)cc(Cl)c3)(c3ccc(-c4cccc(C#N)c4)cc3)CC2)C1 (stereo not shown) | 11 nM
N#Cc1cccc(-c2ccc(C3(OCC(=O)Nc4cc(Cl)cc(Cl)c4)CCN(C4CCOCC4)CC3)cc2)c1 | 9 nM
N#Cc1cccc(-c2ccc(C3(OCC(=O)Nc4cc(Cl)cc(Cl)c4)CCN(C4CCSC4)CC3)cc2)c1 (stereo not shown) | 19 nM
CC1CCC(C)CC(N2CCC(OCC(=O)Nc3cc(Cl)cc(Cl)c3)(c3ccc(-c4cccc(C#N)c4)cc3)CC2)C1 (stereo not shown) | 20 nM
N#Cc1cccc(-c2ccc(C3(OCC(=O)Nc4cc(Cl)cc(Cl)c4)CCN(C4Cc5ccccc5C4)CC3)cc2)c1 | 62 nM
COC1CCCC(CN2CCC(OCC(=O)Nc3cc(Cl)cc(Cl)c3)(c3ccc(-c4cccc(C#N)c4)cc3)CC2)O1 (stereo not shown) | 20 nM
N#Cc1cccc(-c2ccc(C3(OCC(=O)Nc4cc(Cl)cc(Cl)c4)CCN(C4C5CCCC4CCC5)CC3)cc2)c1 (stereo not shown) | 48 nM
CC(C)C1CCC(N2CCC(OCC(=O)Nc3cc(Cl)cc(Cl)c3)(c3ccc(-c4cccc(C#N)c4)cc3)CC2)CC1 (stereo not shown) | 19 nM
CC(=O)C1CCC(N2CCC(OCC(=O)Nc3cc(Cl)cc(Cl)c3)(c3ccc(-c4cccc(C#N)c4)cc3)CC2)CC1 (stereo not shown) | 6 nM
N#Cc1cccc(-c2ccc(C3(OCC(=O)Nc4cc(Cl)cc(Cl)c4)CCN(C4CCC5CCCCC5C4)CC3)cc2)c1 (stereo not shown) | 36 nM
N#Cc1cccc(-c2ccc(C3(OCC(=O)Nc4cc(Cl)cc(Cl)c4)CCN(C4CCC(C(F)(F)F)CC4)CC3)cc2)c1 (stereo not shown) | 49 nM
N#Cc1cccc(-c2ccc(C3(OCC(=O)Nc4cc(Cl)cc(Cl)c4)CCN(C4CCCC(C(F)(F)F)C4)CC3)cc2)c1 (stereo not shown) | 86 nM
N#Cc1cccc(-c2ccc(C3(OCC(=O)Nc4cc(Cl)cc(Cl)c4)CCN(C4CCC(c5ccccc5)CC4)CC3)cc2)c1 (stereo not shown) | 95 nM
CC(C)CCN1CCC(OCC(=O)Nc2cc(Cl)cc(Cl)c2)(c2ccc(-c3cccc(C#N)c3)cc2)CC1 | 30 nM
CCC(C)CN1CCC(OCC(=O)Nc2cc(Cl)cc(Cl)c2)(c2ccc(-c3cccc(C#N)c3)cc2)CC1 (stereo not shown) | 21 nM
N#Cc1cccc(-c2ccc(C3(OCC(=O)Nc4cc(Cl)cc(Cl)c4)CCN(Cc4cccs4)CC3)cc2)c1 | 26 nM
N#Cc1cccc(-c2ccc(C3(OCC(=O)Nc4cc(Cl)cc(Cl)c4)CCN(Cc4ccsc4)CC3)cc2)c1 | 27 nM
N#Cc1cccc(-c2ccc(C3(OCC(=O)Nc4cc(Cl)cc(Cl)c4)CCN(Cc4cccc(O)c4)CC3)cc2)c1 | 19 nM
N#Cc1cccc(-c2ccc(C3(OCC(=O)Nc4cc(Cl)cc(Cl)c4)CCN(Cc4ccc(O)cc4)CC3)cc2)c1 | 20 nM
N#Cc1cccc(-c2ccc(C3(OCC(=O)Nc4cc(Cl)cc(Cl)c4)CCN(CCCc4ccccc4)CC3)cc2)c1 | 50 nM
CC(CN1CCC(OCC(=O)Nc2cc(Cl)cc(Cl)c2)(c2ccc(-c3cccc(C#N)c3)cc2)CC1)c1ccccc1 (stereo not shown) | 42 nM
COc1ccccc1CN1CCC(OCC(=O)Nc2cc(Cl)cc(Cl)c2)(c2ccc(-c3cccc(C#N)c3)cc2)CC1 | 15 nM
COc1ccc(CN2CCC(OCC(=O)Nc3cc(Cl)cc(Cl)c3)(c3ccc(-c4cccc(C#N)c4)cc3)CC2)cc1 | 39 nM
CC(CCN1CCC(OCC(=O)Nc2cc(Cl)cc(Cl)c2)(c2ccc(-c3cccc(C#N)c3)cc2)CC1)c1ccccc1 (stereo not shown) | 72 nM

Structure (SMILES) | Ki
O=C(CNC1(c2ccc(-c3cc(Cl)ccc3Cl)cc2)CCN(C2CCCC2)CC1)Nc1ccc(F)c(Cl)c1 | 52 nM
CN(CC(=O)Nc1ccc(F)c(Cl)c1)C1(c2ccc(-c3cccc(C#N)c3)cc2)CCN(CCO)CC1 | 10 nM
N#Cc1cccc(-c2ccc(C3(OCC(=O)Nc4ccc(Cl)c(C(F)(F)F)c4)CCN(CCO)CC3)cc2)c1 | 48 nM
N#Cc1cccc(-c2ccc(C3(OCC(=O)Nc4ccc(Cl)c(C(F)(F)F)c4)CCN(C4CCCC4)CC3)cc2)c1 | 49 nM
N#Cc1cccc(-c2ccc(C3(OCC(=O)Nc4ccc(F)c(Cl)c4)CCN(CCO)CC3)cc2)c1 | 8.2 nM
O=Cc1cccc(-c2ccc(C3(NCC(=O)Nc4ccc(F)c(Cl)c4)CCN(C4CCCC4)CC3)cc2)c1 | 21 nM
O=C(CNC1(c2ccc(-c3cccc(-c4ncc[nH]4)c3)cc2)CCN(C2CCCC2)CC1)Nc1ccc(F)c(Cl)c1 | 8.3 nM
N#Cc1cccc(-c2ccc(C3(CCC(=O)Nc4cc(Cl)cc(Cl)c4)CCN(C4CCCC4)CC3)cc2)c1 | 35.5 nM
N#Cc1cccc(-c2ccc(C3(CCC(=O)Nc4ccc(F)c(Cl)c4)CCN(C4CCCC4)CC3)cc2)c1 | 26 nM
N#Cc1cccc(-c2ccc(C3(CCC(=O)Nc4cc(F)cc(F)c4)CCN(C4CCCC4)CC3)cc2)c1 | 36 nM
N#Cc1cccc(-c2ccc(C3(CCC(=O)Nc4ccc(F)c(F)c4)CCN(C4CCCC4)CC3)cc2)c1 | 15 nM
CC(C)(C)OC(=O)N1CCC(CCC(=O)Nc2ccc(F)c(F)c2)(c2ccc(-c3cccc(C#N)c3)cc2)CC1 | 51 nM
N#Cc1cccc(-c2ccc(C3(CCC(=O)Nc4ccc(F)c(F)c4)CCNCC3)cc2)c1 | 25 nM
N#Cc1cccc(-c2ccc(C3(CCC(=O)Nc4ccc(F)c(F)c4)CCN(CC4CC4)CC3)cc2)c1 | 8 nM
N#Cc1cccc(-c2ccc(C3(CCC(=O)Nc4cc(Cl)cc(Cl)c4)CCN(CC4CC4)CC3)cc2)c1 | 27 nM
N#Cc1cccc(-c2ccc(C3(CCC(=O)Nc4ccc(F)c(F)c4)CCN(C4CCC4)CC3)cc2)c1 | 19 nM
N#Cc1cccc(-c2ccc(C3(CCC(=O)Nc4ccc(F)c(Cl)c4)CCN(CC4CC4)CC3)cc2)c1 | 34 nM
N#Cc1cccc(-c2ccc(C3(CCC(=O)Nc4cc(F)cc(F)c4)CCN(CC4CC4)CC3)cc2)c1 | 31 nM
N#Cc1cccc(-c2ccc(C3(CCC(=O)Nc4cc(F)cc(C(F)(F)F)c4)CCN(CC4CC4)CC3)cc2)c1 | 49 nM
CC(=O)N1CCC(CCC(=O)Nc2ccc(F)c(F)c2)(c2ccc(-c3cccc(C#N)c3)cc2)CC1 | 61 nM
CCN(CC)C(=O)N1CCC(CCC(=O)Nc2ccc(F)c(F)c2)(c2ccc(-c3cccc(C#N)c3)cc2)CC1 | 45 nM
N#Cc1cccc(-c2ccc(C3(CCC(=O)Nc4ccc(Cl)c(C(F)(F)F)c4)CCN(CC4CC4)CC3)cc2)c1 | 80 nM
N#Cc1cccc(-c2ccc(C3(CCC(=O)Nc4cccc(OC(F)(F)F)c4)CCN(CC4CC4)CC3)cc2)c1 | 69 nM
